In PubChem BioAssay (NCI) one finds TGI data, which are given here for 16 molecules.

Molecules are shown by their SMILES.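 Briefly, cells in 96-well plates were exposed to five compound concentrations for 48 h, and endpoints were estimated by linear interpolation. TGI is the concentration that stops growth completely.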 Bounds are passed on as bounds.

Test systems include HS 578T breast; IGROV1 ovarian; MDA-MB-435; TK-10 renal; UO-31 renal; UACC-62 melanoma; M14 melanoma; NCI/ADR-RES ovarian; OVCAR-5 ovarian; SNB-75 CNS.
Holding throughout (test): NCI tumour cell line growth inhibition, 48 h

On to `CO/N=C(/C(=O)OC)c1ccccc1COc1ccccc1C(F)(F)F`, for which the TGI in the experiment on HS 578T breast, in the experiment with IGROV1 ovarian, in the experiment with MDA-MB-435, in the experiment on TK-10 renal, with UO-31 renal and in the experiment on UACC-62 melanoma was greater than 100 µM in each case. Moreover, the TGI in the experiment on M14 melanoma, in the experiment with NCI/ADR-RES ovarian and in the experiment with OVCAR-5 ovarian was greater than 100 µM in each case.
Regarding `O=C(O)c1cccc(S(=O)(=O)NN2C(=O)CSC2c2ccc(Cl)cc2Cl)c1` (centres undefined), the TGI with HS 578T breast is 58.4 µM; in the experiment on IGROV1 ovarian, greater than 100 µM; with MDA-MB-435, 47 µM; with TK-10 renal it was greater than 100 µM; in the experiment with UO-31 renal, greater than 100 µM; in the experiment with UACC-62 melanoma it was 86.3 µM. Also, the TGI in the experiment with SNB-75 CNS, in the experiment on M14 melanoma and in the experiment with OVCAR-5 ovarian was greater than 100 µM throughout.
For the molecule `Cc1cc(C)nc(NC(=S)Nc2ccc([N+](=O)[O-])cc2)c1`, the TGI in the experiment on HS 578T breast, in the experiment with IGROV1 ovarian, with MDA-MB-435, with TK-10 renal, with UO-31 renal and in the experiment on UACC-62 melanoma was greater than 100 µM in each case. In addition, the TGI in the experiment on SNB-75 CNS and in the experiment on NCI/ADR-RES ovarian was greater than 100 µM each time.
`CCOC(=O)/C=C1/C(CCCOCc2ccccc2)C2CCCC23CC2(CCN13)OCCO2` (centres undefined): the TGI in the experiment with IGROV1 ovarian is greater than 100 µM; in the experiment on TK-10 renal it was greater than 100 µM; in the experiment on UO-31 renal, 64.5 µM; in the experiment with UACC-62 melanoma, 50 µM; in the experiment on SNB-75 CNS it was 9.41 µM; in the experiment on OVCAR-5 ovarian, greater than 100 µM.
For the molecule `C=C1C(=O)[C@@]23CC[C@@H]4[C@@]5(C)CCC[C@@]4(OC5=O)[C@@]2(C)CC[C@@H]1C3`, the TGI in the experiment on HS 578T breast is greater than 54 µM; in the experiment on IGROV1 ovarian it was 4.99 µM; with MDA-MB-435, 13.7 µM; in the experiment with TK-10 renal it was 2.44 µM; with UO-31 renal it was 3.43 µM; in the experiment on UACC-62 melanoma, 3.3 µM. Moreover, the values for the TGI in the experiment with SNB-75 CNS, in the experiment with NCI/ADR-RES ovarian and in the experiment on OVCAR-5 ovarian were 13.1 µM, 21.4 µM and 6.27 µM, respectively.
Regarding `Nc1c(S(=O)(=O)c2ccc(Cl)cc2)c2nc3ccccc3nc2n2ccnc12`, the TGI is greater than 100 µM with IGROV1 ovarian; 78.2 µM with TK-10 renal; greater than 100 µM in the experiment with UO-31 renal; 93.2 µM in the experiment on SNB-75 CNS; greater than 100 µM in the experiment on M14 melanoma; greater than 100 µM in the experiment on OVCAR-5 ovarian.
For the molecule `O=C1NC(O)CCN1C1OC(CO)C(O)C1O` (centres undefined), the TGI in the experiment on IGROV1 ovarian is greater than 250 µM; with UO-31 renal, greater than 250 µM; with UACC-62 melanoma it was greater than 250 µM; in the experiment with SNB-75 CNS it was greater than 250 µM; in the experiment with NCI/ADR-RES ovarian, greater than 250 µM; in the experiment on OVCAR-5 ovarian it was greater than 145 µM.
For `[N-]=[N+]=CC(=O)OC(CCl)CCl`, the TGI in the experiment with IGROV1 ovarian, in the experiment with MDA-MB-435, with TK-10 renal, with UO-31 renal, with UACC-62 melanoma and with OVCAR-5 ovarian was greater than 100 µM throughout.
Turning to `C=C(C)CNCCN`, the TGI with HS 578T breast, in the experiment on IGROV1 ovarian, in the experiment with MDA-MB-435, in the experiment on TK-10 renal, in the experiment on UO-31 renal and in the experiment with UACC-62 melanoma was greater than 100 µM each time. The TGI in the experiment on M14 melanoma, in the experiment on NCI/ADR-RES ovarian and in the experiment with OVCAR-5 ovarian was greater than 100 µM each time.
Turning to `CN1Cc2c(nc(-c3ccccc3)c[n+]2[O-])N(C)C1`, the TGI in the experiment with IGROV1 ovarian, with TK-10 renal, with UO-31 renal, in the experiment with UACC-62 melanoma, with SNB-75 CNS and in the experiment with M14 melanoma was greater than 100 µM each time. This molecule displayed a TGI with OVCAR-5 ovarian greater than 100 µM.
On to `CCOC(=O)/C(C(C)=O)=C(\OC(C)=O)c1ccncc1C(=O)O`, for which the TGI in the experiment on HS 578T breast, in the experiment with IGROV1 ovarian, in the experiment on MDA-MB-435, in the experiment on UO-31 renal, with UACC-62 melanoma and with SNB-75 CNS was greater than 100 µM throughout. Besides, the TGI with M14 melanoma, in the experiment with NCI/ADR-RES ovarian and in the experiment with OVCAR-5 ovarian was greater than 100 µM throughout.
`Clc1sc(Cl)c2c1[C@@H](Cl)C[C@@H]2Br`: the TGI in the experiment with HS 578T breast, in the experiment with IGROV1 ovarian, in the experiment with MDA-MB-435, in the experiment with TK-10 renal, with UO-31 renal and in the experiment on UACC-62 melanoma was greater than 100 µM in each case. Also, the TGI with SNB-75 CNS, in the experiment on M14 melanoma and in the experiment with OVCAR-5 ovarian was greater than 100 µM each time.
With `C=C(CN(C)C)C(=O)c1ccc(C(=O)C(=C)CN(C)C)cc1`, the TGI in the experiment on IGROV1 ovarian, in the experiment on TK-10 renal, in the experiment on UO-31 renal, in the experiment with UACC-62 melanoma, in the experiment on SNB-75 CNS and in the experiment on M14 melanoma was greater than 100 µM throughout. Also, the TGI in the experiment with OVCAR-5 ovarian was greater than 100 µM.
Consider `CC1(C)CCc2c(ccc(C(=O)/C=C/c3ccc(O)cc3)c2O)O1`, for which the TGI in the experiment with HS 578T breast was 27.2 µM; in the experiment with IGROV1 ovarian, 19.9 µM; with MDA-MB-435 it was 19.9 µM; in the experiment on TK-10 renal it was 20 µM; in the experiment with UO-31 renal, 25.5 µM; in the experiment on UACC-62 melanoma it was 19.6 µM. The TGI with M14 melanoma came to 20.7 µM; with NCI/ADR-RES ovarian it was 21.6 µM; with OVCAR-5 ovarian, 21.7 µM.
As to `COc1cc(C2c3cc4c(cc3[C@@H](Nc3ccccc3)C3COC(=O)[C@H]23)OCO4)cc(OC)c1O` (some centres undefined), the TGI in the experiment on IGROV1 ovarian was 17.5 µM; in the experiment on UO-31 renal, 5.07 µM; in the experiment on UACC-62 melanoma, 2.9 µM; in the experiment on SNB-75 CNS, 7.97 µM; in the experiment on NCI/ADR-RES ovarian, 45.2 µM; with OVCAR-5 ovarian, greater than 66.8 µM.
As for `CCOC(=O)c1c2cccccc-2nc1Nc1cccc2c(C)ccnc12`, the TGI with HS 578T breast, in the experiment on IGROV1 ovarian, with MDA-MB-435, in the experiment with TK-10 renal, in the experiment with UO-31 renal and in the experiment with UACC-62 melanoma was greater than 10 µM throughout. The TGI in the experiment with M14 melanoma, in the experiment with NCI/ADR-RES ovarian and in the experiment with OVCAR-5 ovarian was greater than 10 µM throughout.
